Laboratory results from article PMC2248166, “Quantitative peptide binding motifs for 19 human and mouse MHC class I molecules derived using positional scanning combinatorial peptide libraries” (Immunome Research, 2008).

Experiments:
Type in all cases: binding
[1] = biological target: H-2 K^d (Mus musculus, UniProt P01902)
[2] = biological target: HLA B*5801 (Homo sapiens, UniProt P01889, A329T/C349S/D201E/D98Y/E176V/E187L/E204Q/E69T/G107R/I218V/I90N/K202T/L105A/L119I/N104I/N87E/Q89R/Q94S/R106L/R155S/R180L/R86G/S101N/S121R/S35A/S48A/T118I/V127L/V306I/V36M/Y140S/Y91M)
[3] = biological target: HLA B*5101 (Homo sapiens, UniProt P01889, A329T/A93T/A95T/C349S/D138N/D201E/D98Y/E187L/E204Q/E69T/G107R/I218V/K202T/L105A/L119W/N104I/Q94N/R106L/R155S/R180L/S101N/S121T/S35A/S48A/V306I/V36M/Y195H/Y91F)
[4] = biological target: HLA B*1501 (Homo sapiens, UniProt P01889, A329T/A93T/A95T/C349S/D201E/D98Y/E187L/E204Q/E69M/E70A/K202T/N87E/Q94N/R155S/R180W/S121R/S35A/S48A/V306I/V36M/Y140S/Y91S); experiment: biochemical
[5] = biological target: HLA B*0801 (Homo sapiens, UniProt P01889, A93T/A95T/D138N/E176V/E187T/K202T/Q94N/R180D/S35A/V36M/Y33D/Y91F); experiment: biochemical
[6] = biological target: H-2 D^b (Mus musculus, UniProt P01899)
[7] = biological target: HLA B*5802 (Homo sapiens, UniProt P01889, A329T/C349S/D201E/D98Y/E176V/E187L/E204Q/E69T/G107R/I218V/I90N/K202T/L105A/N104I/N87E/Q89R/Q94S/R106L/R155S/R180L/R86G/S101N/S121W/S35A/S48A/V127L/V306I/V36M/Y140S/Y91M)
[8] = biological target: HLA B*3501 (Homo sapiens, UniProt P01889, A329T/A93T/A95T/C349S/D201E/D98Y/E176V/E187L/E204Q/E69T/I218V/K202T/L119I/Q94N/R155S/R180L/S121R/S35A/S48A/T118I/V127L/V306I/V36M/Y140S/Y91F)
[9] = biological target: HLA A*3201 (Homo sapiens, UniProt P04439, A270S/D101S/D185E/E176V/E277Q/F133L/G103R/G107R/G231S/H175R/I121M/I218V/I322F/K168Q/L105A/L300P/L318F/M331R/P208A/P217A/Q94H/R106L/R138Q/S129P/T104I/T323A/T345S/V100E/V321M/V358M); experiment: biochemical
[10] = biological target: HLA B*5301 (Homo sapiens, UniProt P01889, A329T/A93T/A95T/C349S/D201E/D98Y/E176V/E187L/E204Q/E69T/G107R/I218V/K202T/L105A/L119I/N104I/Q94N/R106L/R155S/R180L/S101N/S121R/S35A/S48A/T118I/V127L/V306I/V36M/Y140S/Y91F)
[11] = biological target: HLA A*6802 (Homo sapiens, UniProt P04439, A269V/D140Y/D185E/E176V/E277Q/E87N/F33Y/G231S/I121R/I166T/I218V/L180W/L300P/L318F/N151K/P208A/P217A/Q86R/R138H/R169H/S129P/T345S/V36M)
[12] = biological target: H-2 K^k (Mus musculus, UniProt P04223)
[13] = biological target: H-2 D^d (Mus musculus, UniProt P01900)
[14] = biological target: HLA A*3001 (Homo sapiens, UniProt P04439, D140H/D185E/E176W/F33S/G80R/H175R/K168Q/R138E/R41S); experiment: biochemical
[15] = biological target: HLA B*1503 (Homo sapiens, UniProt P01889, A329T/A93T/A95T/C349S/D201E/D98Y/E187L/E204Q/K202T/N87E/Q94N/R155S/R180L/S121R/S35A/V306I/V36M/Y140S/Y91S); experiment: biochemical
[16] = biological target: HLA B*5401 (Homo sapiens, UniProt P01889, A329T/C349S/D138N/D201E/E176V/E187T/E204Q/E69G/I76V/K202T/L119W/R155S/R180L/S121T/S35A/S48A/V127L/V306I/V36M/Y140L)

Sequence of H-2 D^d (P01900 whole entry, looked up): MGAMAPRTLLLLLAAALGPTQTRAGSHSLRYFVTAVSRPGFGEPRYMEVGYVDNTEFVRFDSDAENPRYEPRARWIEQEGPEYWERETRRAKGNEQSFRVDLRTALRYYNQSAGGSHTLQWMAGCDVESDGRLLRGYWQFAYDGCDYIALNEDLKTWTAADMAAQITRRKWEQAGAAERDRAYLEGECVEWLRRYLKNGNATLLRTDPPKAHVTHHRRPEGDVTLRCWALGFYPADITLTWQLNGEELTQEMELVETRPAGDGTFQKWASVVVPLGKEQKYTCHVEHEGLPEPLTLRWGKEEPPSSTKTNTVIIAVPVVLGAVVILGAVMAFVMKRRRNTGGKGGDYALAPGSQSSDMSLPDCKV
Sequence of H-2 K^k (P01887 21-119): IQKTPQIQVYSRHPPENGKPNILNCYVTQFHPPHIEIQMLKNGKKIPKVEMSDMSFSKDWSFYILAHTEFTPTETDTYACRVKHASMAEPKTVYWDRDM
Sequence of H-2 K^k (P04223 22-369): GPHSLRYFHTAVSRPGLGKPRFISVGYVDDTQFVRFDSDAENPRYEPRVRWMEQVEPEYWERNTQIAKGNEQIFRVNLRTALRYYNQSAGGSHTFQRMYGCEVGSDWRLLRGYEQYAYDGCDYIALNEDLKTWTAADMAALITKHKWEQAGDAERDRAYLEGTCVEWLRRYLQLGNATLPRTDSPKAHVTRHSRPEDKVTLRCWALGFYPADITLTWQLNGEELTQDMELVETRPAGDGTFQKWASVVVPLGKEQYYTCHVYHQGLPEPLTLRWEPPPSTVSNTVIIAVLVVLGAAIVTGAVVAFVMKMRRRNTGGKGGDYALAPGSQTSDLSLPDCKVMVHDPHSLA
Sequence of H-2 D^b (P01887 21-119): as the sequence (P01887 21-119) above
Sequence of H-2 D^b (P01899 25-362): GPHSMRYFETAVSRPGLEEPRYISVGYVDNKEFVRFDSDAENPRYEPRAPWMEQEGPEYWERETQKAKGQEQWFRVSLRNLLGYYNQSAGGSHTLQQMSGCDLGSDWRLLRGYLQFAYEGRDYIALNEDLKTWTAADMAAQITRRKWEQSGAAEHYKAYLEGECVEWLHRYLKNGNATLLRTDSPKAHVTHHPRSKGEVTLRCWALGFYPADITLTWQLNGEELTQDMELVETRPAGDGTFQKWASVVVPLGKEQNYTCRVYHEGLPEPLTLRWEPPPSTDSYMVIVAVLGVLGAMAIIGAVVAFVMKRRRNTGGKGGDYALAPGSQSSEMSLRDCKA
Sequence of H-2 K^d (P01887 21-119): as the sequence (P01887 21-119) above
Sequence of H-2 K^d (P01902 22-368): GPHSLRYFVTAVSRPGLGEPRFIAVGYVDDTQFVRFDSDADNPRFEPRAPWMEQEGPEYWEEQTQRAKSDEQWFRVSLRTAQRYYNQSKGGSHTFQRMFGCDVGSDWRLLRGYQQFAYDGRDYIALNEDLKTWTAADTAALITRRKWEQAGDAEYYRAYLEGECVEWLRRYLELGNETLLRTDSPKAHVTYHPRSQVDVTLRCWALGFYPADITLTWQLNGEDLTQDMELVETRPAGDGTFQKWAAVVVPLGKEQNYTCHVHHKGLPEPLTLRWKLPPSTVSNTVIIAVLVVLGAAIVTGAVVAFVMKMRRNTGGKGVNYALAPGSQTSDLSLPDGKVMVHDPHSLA

Sequence	Normalized average relative binding affinity(ARB) [1]	Normalized average relative binding affinity(ARB) [2]	Normalized average relative binding affinity(ARB) [3]	Normalized average relative binding affinity(ARB) [4]	Normalized average relative binding affinity(ARB) [5]	Normalized average relative binding affinity(ARB) [6]	Normalized average relative binding affinity(ARB) [7]	Normalized average relative binding affinity(ARB) [8]	Normalized average relative binding affinity(ARB) [9]	Normalized average relative binding affinity(ARB) [10]	Normalized average relative binding affinity(ARB) [11]	Normalized average relative binding affinity(ARB) [12]	Normalized average relative binding affinity(ARB) [13]	Normalized average relative binding affinity(ARB) [14]	Normalized average relative binding affinity(ARB) [15]	Normalized average relative binding affinity(ARB) [16]
XXXXXXPXX [3064.0133]	0.021	0.22	0.53	0.62	0.36	0.26	1.0	0.31	0.088	0.50	0.37	0.10	0.020	1.0	0.16	0.32
XXXXXXQXX [3064.0134]	0.25	0.23	0.50	0.51	0.79	0.84	0.22	0.36	0.33	1.0	0.45	0.016	0.057	0.29	0.95	1.0
XXXXXXRXX [3064.0135]	0.11	0.075	0.57	0.22	0.50	0.15	0.21	0.16	0.10	0.25	0.11	0.21	0.013	0.085	0.21	0.13
XXXXXXSXX [3064.0136]	0.92	0.14	0.51	0.65	0.35	0.34	0.044	0.22	0.14	0.087	0.40	0.16	0.038	0.042	0.32	0.098
XXXXXXTXX [3064.0137]	1.0	0.28	0.58	0.49	0.46	0.67	0.057	0.27	0.14	0.081	0.60	0.061	0.029	0.11	0.16	0.33
XXXXXXVXX [3064.0138]	0.13	0.53	0.57	0.56	0.55	0.57	0.073	0.57	1.0	0.32	0.80	0.079	0.045	0.19	0.19	0.77
XXXXXXWXX [3064.0139]	0.056	0.79	0.91	0.31	0.53	0.31	0.18	1.0	0.48	0.31	1.0	0.064	0.044	0.16	0.15	0.22
XXXXXXXAX [3064.0141]	1.0	0.14	0.52	0.36	0.95	0.50	0.31	1.0	0.99	0.80	1.0	0.82	0.93	0.53	0.27	0.50
